# Assay: Inhibition of gamma secretase assessed as reduction in Abeta42 production
row,SMILES,IC50 [µM]
1,CCC[C@H](C(=O)O)c1cc(OCc2ccccc2)cc(-c2ccc(C(F)(F)F)cc2)c1,2.5
2,CC(C)CCN(Cc1ccc(C(F)(F)F)cc1)Cc1cc(-c2ccc(C(F)(F)F)cc2)cc(C(CC(C)C)C(=O)O)c1 (centres undefined),0.22
3,CC(C(=O)O)c1ccc(-c2ccccc2)c(F)c1 (racemic) [FLURBIPROFEN],300
4,COc1cc(Nc2c(OC)cnn(C(C)c3ccccc3)c2=O)ccc1-n1cnc(C)c1 (centres undefined),3.1
5,CC(C)CC(C(=O)O)c1cc(-c2ccc(C(F)(F)F)cc2)cc(C2CCCC(C(F)(F)F)N2C)c1 (centres undefined),0.42
6,CC(C(=O)O)c1ccc2c(c1)[nH]c1ccc(Cl)cc12 (centres undefined) [CARPROFEN],76
7,CSc1ccc(/C=C2/C(C)=C(CC(=O)O)c3cc(F)ccc32)cc1 [SULINDAC SULFIDE],34
8,COc1cc(/C=C2\CC[C@H]3CCC[C@@H](c4cc(F)c(F)c(F)c4)N3C2=O)ccc1-n1cnc(C)c1,0.033
9,CC(C)CC(C(=O)O)c1cc(C#N)c(OCC2CC2)c(-c2ccc(C(F)(F)F)cc2)c1 (centres undefined),0.275
10,CC(C)CC[C@H](c1ccc(C(F)(F)F)cc1)N1CC[C@@H](CC(=O)O)C(F)(F)[C@H]1c1ccc(C(F)(F)F)cc1,0.71
11,COc1cc(/C=C/C(=O)NC2CCc3ccccc3C2)ccc1-n1cnc(C)c1 (centres undefined),0.06
12,CC(C)CC(C(=O)O)c1cc(-c2ccc(C(F)(F)F)cc2)cc(C2CCCC(C(F)(F)F)N2Cc2ccc(C(F)(F)F)cc2)c1 (centres undefined),0.31
13,N#Cc1cc(Nc2nc3n(n2)CCCC3c2ccc(F)cc2)ccc1-n1cnc(Cl)c1 (centres undefined),0.11
14,CC(C)CC(C(=O)O)c1cc(Cc2cc(F)cc(F)c2)cc(-c2ccc(C(F)(F)F)cc2)c1 (centres undefined),0.74
15,COc1cc(Nc2cccc3c2nc(-c2ccc(F)cc2)n3C(C)C)ccc1-c1ccnc(C)c1,0.039
16,COc1cc(C)c(Cc2nc(-c3ccc(-n4cnc(C)c4)c(OC)n3)n[nH]2)cc1C(C)C,0.011
17,COc1cc(/C=C2\OC[C@@H]3CCC[C@H](c4ccc(F)cc4)N3C2=O)ccc1-n1cnc(C)c1,0.201

row,SMILES,IC50 [µM]
1,COc1cc(Nc2nc3c(s2)CCCC3c2ccccc2)ccc1-n1cnc(C)c1 (centres undefined),0.04
2,CC(C)CC(C(=O)O)c1cc(-c2ccc(C(F)(F)F)cc2)cc(-c2cc(C(F)(F)F)cc(C(F)(F)F)c2)c1 (racemic),0.08
3,COc1cc(-c2cn(C3CCc4c(F)cccc4N(CC(F)(F)F)C3=O)nn2)ccc1C#Cc1ccnc(C)c1 (centres undefined),0.083
4,COc1cc(/C=C/c2nc3n(n2)CCC[C@@H]3c2cc(F)c(F)c(F)c2)ccc1-n1cnc(C)c1,0.014
5,COc1cc(C(O)c2c(OC)cnn([C@@H](C)c3ccc(F)cc3)c2=O)ccc1-n1cnc(C)c1 (some centres undefined),7.1
6,COc1cc(Nc2nc(C)c(Cc3cccc(Cl)c3)s2)ccc1-n1cnc(C)c1,0.21
7,COc1cc(Nc2nc3n(n2)CCCC[C@@H]3c2ccc(OCC(F)(F)F)cc2)ccc1-n1cnc(Cl)c1,0.01
8,COc1cc(Nc2nc(C)cc(Oc3ccc(Cl)cc3)n2)ccc1-n1cnc(C)c1,0.38
9,COc1cc(Nc2nc(OC(C)C)nc(N(C)c3ccc(Cl)cc3)n2)ccc1-n1cnc(C)c1,0.12
10,COc1nc(/C=C/c2nc3n(n2)CCC[C@H]3c2ccccc2C(F)(F)F)ccc1-n1cnc(C)c1 [E-2212],0.017
11,COc1cc(Nc2nc3n(n2)CCCC[C@H]3c2ccc(OCC(F)(F)F)cc2)ccc1-n1cnc(Cl)c1,0.005
12,COc1cc(C2=NOC3(CCCN(C(C)c4ccc(F)cc4)C3=O)C2)ccc1-n1cnc(C)c1 (centres undefined),> 0.2
13,COc1cc(/C=C/c2nc3n(n2)CCC[C@@H]3c2cccc(F)c2)ccc1-n1cnc(C)c1,0.028
14,COc1cc(/C=C/c2nc(-c3ccccc3)c[nH]2)ccc1-n1cnc(C)c1,0.076
15,COc1cc(Nc2ncn(Cc3cccc(Cl)c3)n2)ccc1-n1cnc(C)c1,0.13
16,CC(C)CC(C(=O)O)c1cc(CCc2ccc(-c3ccccc3)cc2)cc(-c2ccc(Cl)c(C(F)(F)F)c2)c1 (centres undefined),0.21
17,CC(C)CC(C(=O)O)c1cc(-c2ccc(C(F)(F)F)cc2)cc(N(C)c2cc(F)cc(F)c2)c1 (centres undefined),0.45

# From ChEMBL document CHEMBL2150877, “γ-Secretase modulators as potential disease modifying anti-Alzheimer's drugs” (J Med Chem, 2011)
